Data published in US11299472B2, “Fumarate salt of (R)-3-(1-(2,3-dichloro-4-(pyrazin-2-yl)phenyl)-2,2,2- trifluoroethyl)-1-methyl-1-(1-methylpiperidin-4-yl) urea, methods of preparation, and uses thereof” (Helsinn Healthcare SA, priority 2017, dated 2022).

Experiments:
[1] = Rat pharmacokinetic study, single oral HM04 fumarate salt 3, 10, 30 mg/kg (Example 10); format: in vivo, male Sprague Dawley rats; details: for concentration at 0.5 h: 0.50 hours
Description: (§1) The pharmacokinetics of HM04 in plasma after single oral administration of HM04 fumarate salt to 6-week old male Sprague Dawley rats and male Beagle dogs (1-5 years of age) was investigated. Test formulations of 0.6 mg/mL, 2 mg/mL, and 6 mg/mL HM04 fumarate salt (based on weight of the free base) were prepared in 5% glucose solution. Doses of 3, 10, and 30 mg/kg HM04 fumarate salt (based on weight of the free base) were administered by gastric gavage as a 5 mL/kg dose volume of each of the three test formulations. Four animals were in each dose group. The formulation was administered to the dogs in fasting conditions with food provided three hours post-dosing.
A comparison of the plasma concentration of HM04 (ng/mL) in rats over time is provided in FIG. 19 and a summary of the pharmacokinetic analysis is provided in Table 5, below. […] The standard deviation associated with the mean oral bioavailability was calculated according to the formula: SDq=[^2√{square root over ((my^2·SDx^2+mx^2−SDy^2))}]/my^2 where q=mean bioavailability; mx=oral dose-normalized mean AUC, and my=IV dose-normalized mean AUC.
(§2) Plasma HM04 concentrations were measured by LC-MS/MS following protein precipitation in the 96-well plate format. At the time of analysis samples were thawed out at ambient temperature. Aliquots of 25 μL of rat or dog K3EDTA plasma were spiked with 300 μL of internal standard (25 ng/mL of HM04-d8 in acetonitrile). After gentle vortex mixing for 5 minutes and centrifugation at 2010 g for 15 minutes at 4° C., an aliquot of 100 μL of the organic phase was transferred into a fresh 96-well polypropylene plate, using a P3-Evolution robotic system (Perkin Elmer). Following dilution with 100 μL of […] ammonium formate pH 3.5, an aliquot of 10 μL was injected into the LC-MS/MS system.

[2] = Dog pharmacokinetic study, single oral HM04 fumarate salt 3, 10, 30 mg/kg (Example 10); format: in vivo, male Beagle dogs
Description: as §1
Oral absolute bioavailability at 3 mg/kg was calculated from the ratio of individual oral AUC∞ to the individual AUC∞ values determined following intravenous administration of 3 mg/kg HM04 fumarate salt (based on weight of the free base) to the same four male Beagle dogs.
Oral absolute bioavailability at 10 mg/kg was calculated from the ratio of individual oral AUC∞ to the individual AUC∞ values determined following intravenous administration of 10 mg/kg HM04 fumarate salt (based on weight of the free base) to the same four male Beagle dogs.
as §2

[3] = male, Sprague Dawley, plasma, 3 mg/kg oral, n=4
[4] = male, Sprague Dawley, plasma, 10 mg/kg oral, n=4
[5] = male, Sprague Dawley, plasma, 10 mg/kg oral, N = 3
[6] = male, Sprague Dawley, plasma, 30 mg/kg oral, n=4
[7] = male, Beagle, plasma, 3 mg/kg oral, n=4

For `CN1CCC(N(C)C(=O)N[C@H](c2ccc(-c3cnccn3)c(Cl)c2Cl)C(F)(F)F)CC1.O=C(O)/C=C/C(=O)O` [HM04 fumarate salt, (R)-3-(1-(2,3-dichloro-4-(pyrazin-2-yl)phenyl)-2,2,2-trifluoroethyl)-1-methyl-1-(1-methylpiperidin-4-yl)urea fumarate salt], the HM04 plasma concentration ([1]; 3 mg/kg oral, 24 hours, n=4, LLOQ 5.0 ng/mL) was “BLQ”, the bioavailability ([1]; male, Sprague Dawley, plasma, 3 mg/kg oral vs 3 mg/kg intravenous mean AUC) was 43.3 ± 10.5% and the concentration at 0.25 h [1, 3] was 34.7 ± 5.42 ng/mL. The concentration at 0.5 h [1, 3] was 64.2 ± 35 ng/mL, the concentration at 1 h [1, 3] was 82.4 ± 30.8 ng/mL and the concentration at 2 h [1, 3] was 150 ± 53.5 ng/mL. The concentration at 4 h [1, 3] was 116 ± 24 ng/mL, the concentration at 8 h [1, 3] was 47 ± 10.9 ng/mL and the half-life ([1]; male, Sprague Dawley, plasma, 3 mg/kg oral, N = 2) was 2.82 h. It also gave an AUC(0-t) [1, 3] of 762 ± 164 ng·h/mL, a Cmax [1, 3] of 156 ± 47.3 ng/mL and a Tmax [1, 3] of 3 ± 1.15 h. The AUC ([1]; male, Sprague Dawley, plasma, 10 mg/kg intravenous, four rats, read-out: mean AUC following intravenous administration) was 6170 ± 1770 ng·h/mL, the bioavailability ([1]; male, Sprague Dawley, plasma, 10 mg/kg oral vs 10 mg/kg intravenous mean AUC) was 54.4 ± 15.2% and the concentration at 0.25 h [1, 4] was 150 ± 28.5 ng/mL. For the same compound, the concentration at 0.5 h [1, 4] was 548 ± 603 ng/mL, the concentration at 1 h [1, 4] was 456 ± 100 ng/mL and the concentration at 2 h [1, 4] was 652 ± 62.1 ng/mL. The concentration at 4 h [1, 4] was 387 ± 134 ng/mL, the concentration at 8 h [1, 4] was 215 ± 97.3 ng/mL and the concentration at 24 h ([1]; male, Sprague Dawley, plasma, 10 mg/kg oral, 24 hours, N = 1, three of four animals below level of quantification) was 8.73 ± 17.5 ng/mL. For the same compound, the AUC(0-t) [1, 5] was 3360 ± 685 ng·h/mL, the half-life [1, 5] was 4.88 h and the Cmax [1, 4] was 769 ± 458 ng/mL. For the same compound, the Tmax [1, 4] was 1.38 ± 0.75 h, the concentration at 0.25 h [1, 6] was 950 ± 465 ng/mL and the concentration at 0.5 h [1, 6] was 1400 ± 961 ng/mL. It also gave a concentration at 1 h [1, 6] of 2290 ± 537 ng/mL, a concentration at 2 h [1, 6] of 2560 ± 530 ng/mL and a concentration at 4 h [1, 6] of 2120 ± 422 ng/mL. The concentration at 8 h [1, 6] was 1350 ± 179 ng/mL, the concentration at 24 h ([1]; male, Sprague Dawley, plasma, 30 mg/kg oral, 24 hours, n=4) was 14.6 ± 6.8 ng/mL and the AUC(0-t) [1, 6] was 26200 ± 3970 ng·h/mL. It also gave a Cmax [1, 6] of 2590 ± 524 ng/mL, a Tmax [1, 6] of 1.75 ± 0.5 h and a half-life [1, 6] of 2.65 ± 0.193 h. The clearance [2] was “low clearance”, the oral bioavailability [2] was “high” and the HM04 plasma concentration ([2]; 30 mg/kg oral, 0 hours (pre-dose), n=4, LLOQ 2.5 ng/mL) was “BLQ”. It also gave a bioavailability ([2]; male, Beagle, plasma, 3 mg/kg oral vs 3 mg/kg intravenous, individual AUC∞ ratios) of 55.6 ± 18.8%, a concentration at 0 h ([2]; male, Beagle, plasma, 3 mg/kg oral, 0 hours (pre-dose), n=4) of 5.34 ± 3.83 ng/mL and a concentration at 0.25 h ([2]; male, Beagle, plasma, 3 mg/kg oral, 0.25 hours, n=4) of 66 ± 26.8 ng/mL. It also gave a concentration at 0.5 h ([2]; male, Beagle, plasma, 3 mg/kg oral, 0.50 hours, n=4) of 360 ± 238 ng/mL, a concentration at 1 h ([2]; male, Beagle, plasma, 3 mg/kg oral, 1 hour, n=4) of 300 ± 127 ng/mL and a concentration at 2 h ([2]; male, Beagle, plasma, 3 mg/kg oral, 2 hours, N = 3 (Dog 3 excluded as outlier)) of 287 ± 158 ng/mL. The concentration at 4 h ([2]; male, Beagle, plasma, 3 mg/kg oral, 4 hours, n=4) was 185 ± 115 ng/mL, the concentration at 8 h ([2]; male, Beagle, plasma, 3 mg/kg oral, 8 hours, n=4) was 95.6 ± 83.3 ng/mL and the concentration at 24 h ([2]; male, Beagle, plasma, 3 mg/kg oral, 24 hours, n=4) was 8.83 ± 14.7 ng/mL. It also gave an AUC(0-t) [2, 7] of 2160 ± 1720 ng·h/mL, a Cmax [2, 7] of 425 ± 222 ng/mL and a Tmax [2, 7] of 0.875 ± 0.25 h.
